These compounds were tested against T1, Epidermal growth factor receptor (Homo sapiens, UniProt P00533) (assay: (§1) Inhibitory concentration of EGF dependent autophosphorylation of epidermal growth factor receptor kinase).
T1 sequence (P00533 whole entry): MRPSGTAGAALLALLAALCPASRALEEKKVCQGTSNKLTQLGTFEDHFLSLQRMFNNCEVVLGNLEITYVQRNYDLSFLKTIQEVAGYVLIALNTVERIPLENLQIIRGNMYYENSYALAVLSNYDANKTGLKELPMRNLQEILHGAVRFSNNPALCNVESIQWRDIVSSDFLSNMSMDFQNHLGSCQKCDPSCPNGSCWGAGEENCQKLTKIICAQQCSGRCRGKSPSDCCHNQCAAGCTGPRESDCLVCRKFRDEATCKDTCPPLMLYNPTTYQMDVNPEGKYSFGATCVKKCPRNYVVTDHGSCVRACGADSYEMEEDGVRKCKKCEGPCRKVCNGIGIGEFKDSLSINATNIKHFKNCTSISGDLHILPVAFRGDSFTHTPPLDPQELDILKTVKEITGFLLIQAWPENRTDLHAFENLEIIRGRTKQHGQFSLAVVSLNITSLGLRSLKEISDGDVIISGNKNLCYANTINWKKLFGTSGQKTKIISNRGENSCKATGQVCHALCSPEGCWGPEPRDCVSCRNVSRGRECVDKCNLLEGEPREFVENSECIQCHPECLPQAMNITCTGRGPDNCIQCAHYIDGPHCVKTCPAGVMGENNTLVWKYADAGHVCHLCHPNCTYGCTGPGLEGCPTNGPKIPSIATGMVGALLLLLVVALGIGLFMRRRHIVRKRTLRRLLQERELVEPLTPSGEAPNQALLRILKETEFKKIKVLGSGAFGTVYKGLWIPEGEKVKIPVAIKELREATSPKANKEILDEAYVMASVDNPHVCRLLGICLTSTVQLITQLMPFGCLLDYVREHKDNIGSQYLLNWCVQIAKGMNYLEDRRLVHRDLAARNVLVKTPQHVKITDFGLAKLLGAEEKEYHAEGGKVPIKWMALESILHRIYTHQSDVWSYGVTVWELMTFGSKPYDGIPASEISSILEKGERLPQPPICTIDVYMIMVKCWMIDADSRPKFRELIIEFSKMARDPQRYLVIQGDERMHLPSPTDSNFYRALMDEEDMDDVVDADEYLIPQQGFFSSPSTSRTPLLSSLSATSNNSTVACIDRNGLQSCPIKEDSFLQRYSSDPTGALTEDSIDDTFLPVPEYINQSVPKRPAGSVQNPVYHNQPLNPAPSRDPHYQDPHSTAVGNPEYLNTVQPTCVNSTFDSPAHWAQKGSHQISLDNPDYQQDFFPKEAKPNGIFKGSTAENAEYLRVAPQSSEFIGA
In the case of `N#C/C(=C\c1ccc(O)c(O)c1)C(N)=O`, the IC50 is reported as 10 µM. With `N#CC(C#N)=Cc1ccc(O)cc1` the IC50 was 560 µM. `CC(=C(C#N)C#N)c1ccc(NC(=O)CCC(=O)O)cc1` was tested, and the IC50 was 500 µM. In the case of `COc1cc(C=C(C#N)C#N)cc([N+](=O)[O-])c1O`, the IC50 is reported as 160 µM. `N#CC(C#N)=Cc1ccc(NC(=O)CCC(=O)O)cc1` gave an IC50 of 640 µM. With `COc1cc(/C=C(\C#N)C(=O)O)ccc1O` the IC50 was 800 µM. With `N#C/C(=C\c1ccc(O)cc1)C(N)=O` the IC50 was 800 µM. With `O=C(O)C(=Cc1ccc(O)cc1)C(=O)O` the IC50 was 1500 µM. `N#CC(C#N)=Cc1ccc(O)c([N+](=O)[O-])c1` was tested, and the IC50 was 125 µM. For `N#CC(C#N)=C1C(=O)NC(=O)NC1=O`, the IC50 was 1400 µM. In the case of `N#CC(C#N)=C(N)/C(C#N)=C/c1ccc(O)c(O)c1`, the IC50 is reported as 2.5 µM. Work on `N#CC(C#N)=C(O)c1cc(O)c(O)c(O)c1` yielded an IC50 of 13.5 µM. `N#CC(C#N)=C(N)/C(C#N)=C/c1ccc(O)c([N+](=O)[O-])c1` gave an IC50 of 60 µM. In the case of `N#C/C(=C\c1ccc([N+](=O)[O-])cc1)C(=O)O`, the IC50 is reported as 1300 µM. In the case of `N#CC(C#N)=Cc1cccc(O)c1`, the IC50 is reported as 375 µM. `N#CC(C#N)=Cc1ccc[nH]1` was tested, and the IC50 was 260 µM. For `N#CC(C#N)=NNc1ccc(O)cc1`, the IC50 was 225 µM. `N#CC(C#N)=Cc1ccc(C=O)cc1` showed an IC50 of 60 µM. With `COc1ccc(C(O)=C(C#N)C#N)cc1` the IC50 was 450 µM. With `N#CC(C#N)=Cc1ccc(N2CCOCC2)cc1` the IC50 was greater than 625 µM. For `COc1cc(C=C(C#N)C#N)cc(OC)c1O`, the IC50 was 850 µM. Work on `N#CC(C#N)=Cc1cc[n+]([O-])cc1` yielded an IC50 of 1300 µM. `N#C/C(=C\c1ccc(O)c(O)c1)C(=O)O` was tested, and the IC50 was 70 µM. For `N#C/C=C/c1ccc(O)cc1`, the IC50 was 2400 µM. Work on `N#CCNC(=O)/C(C#N)=C/c1ccc(O)cc1` yielded an IC50 of 625 µM. Compound `N#CC(C#N)Cc1ccc(O)cc1` has an IC50 of 6500 µM. For `N#CC(C#N)=C(N)/C(C#N)=C/c1ccc(O)cc1`, the IC50 was 0.125 µM. Compound `N#C/C(=C/c1cc(O)ccc1O)C(=O)O` has an IC50 of 75 µM. In the case of `N#CC(C#N)=Cc1cc(O)cc(O)c1`, the IC50 is reported as 37 µM. `COc1cc(/C=C(\C#N)C(=O)O)cc(OC)c1O` gave an IC50 of 700 µM. `N#CC(C#N)=Cc1ccc(F)cc1` gave an IC50 greater than 1250 µM. In the case of `N#C/C(=C\c1ccc(C=O)cc1)C(=O)O`, the IC50 is reported as 140 µM. For `N#CC(C#N)=Cc1cc(O)ccc1[N+](=O)[O-]`, the IC50 was 96 µM. In the case of `COc1cc(/C(C)=C(\C#N)C(=O)O)ccc1O`, the IC50 is reported as 1100 µM. For `CCCCc1cc(/C=C(\C#N)C(N)=O)cc(CCCC)c1O`, the IC50 was 55 µM. For `CC(=C(C#N)C#N)c1ccc(N)cc1`, the IC50 was greater than 1250 µM. In the case of `COc1cc(C=C(C#N)C#N)cc(Br)c1O`, the IC50 is reported as 153 µM. `N#C/C(=C/c1ccc[nH]1)C(=O)O` showed an IC50 of 1360 µM. Work on `N#CC(C#N)=Cc1ccc([N+](=O)[O-])c(O)c1` yielded an IC50 of 450 µM. `COc1ccc(/C=C(\C#N)C(=O)O)cc1` gave an IC50 of 2500 µM. Work on `N#C/C(=C\c1ccccc1)C(=O)O` yielded an IC50 greater than 2500 µM. `COc1cc(C=C(C#N)C#N)cc(OC)c1` showed an IC50 greater than 1250 µM. Compound `N#CC(C#N)=Cc1ccncc1` has an IC50 of 250 µM. In the case of `N#CC(C#N)=Cc1ccc(/C=C/C(=O)O)cc1`, the IC50 is reported as 450 µM. Work on `N#CC(C#N)=C(N)/C(C#N)=C/c1cc(O)c(O)c(Br)c1` yielded an IC50 of 0.5 µM. Work on `N#CC(C#N)=CNc1ccc(O)cc1` yielded an IC50 of 350 µM. `COc1ccc(NN=C(C#N)C#N)cc1` gave an IC50 of 600 µM. For `COc1cc(C=C(C#N)C#N)ccc1O`, the IC50 was 200 µM. In the case of `N#CC(C#N)=Cc1ccc(C(=O)O)cc1`, the IC50 is reported as 430 µM. Work on `N#C/C(=C\c1ccc(F)cc1)C(=O)O` yielded an IC50 of 2500 µM. With `COc1ccc(C=C(C#N)C#N)cc1O` the IC50 was greater than 250 µM. Work on `N#CC(C#N)=C(O)c1ccc(O)cc1` yielded an IC50 of 230 µM. `COc1cc(C=C(C#N)C#N)cc(O)c1O` gave an IC50 of 6 µM. `O=C(O)/C=C/c1ccc(O)c(O)c1` [CAFFEIC ACID] was tested, and the IC50 was 1200 µM. `O=C(O)/C=C/c1ccc(O)cc1` [COUMARIC ACID] gave an IC50 of 3000 µM. `O=CN/C=C/c1cc(O)ccc1O` [ERBSTATIN] gave an IC50 of 14 µM. `N[C@@H](Cc1ccc(O)c(O)c1)C(=O)O` [LEVODOPA] was tested, and the IC50 was 900 µM. `N#CC(C#N)=Cc1cc(O)c(O)c(O)c1` [TYRPHOSTIN 25] showed an IC50 of 3 µM. `N#CC(C#N)=C(N)/C(C#N)=C/c1cc(O)c(O)c(O)c1` [TYRPHOSTIN 51] showed an IC50 of 0.8 µM. `CC(C)(C)c1cc(C=C(C#N)C#N)cc(C(C)(C)C)c1O` [TYRPHOSTIN A9] gave an IC50 of 460 µM. In the case of `N#C/C(=C\c1ccc(O)cc1)C(=O)O` [alpha-CYANO-4-HYDROXYCINNAMIC ACID], the IC50 is reported as 308 µM.

These compounds were tested against T1, Epidermal growth factor receptor (assay: Inhibition of EGF-dependent epidermal growth factor receptor autophosphorylation (inactive)).
In the case of `O=[N+]([O-])c1ccc(O)c(O)c1` [4-Nitrocatechol], the IC50 is reported as “Not Active” and the Ki is reported as “Not Active”. `O=C(O)c1ccc(O)cc1` [PARABEN] was tested, and the IC50 was “Not Active” and the Ki was “Not Active”.

These compounds were tested against T1, Epidermal growth factor receptor (assay: as §1).
`COc1cc(/C=C(\C#N)C(=O)O)ccc1O` gave an IC50 of 800 µM. Compound `N#C/C(=C\c1ccc(O)c(O)c1)C(=O)O` has an IC50 of 70 µM. `COc1cc(/C=C(\C#N)C(=O)O)cc(OC)c1O` was tested, and the IC50 was 700 µM. Work on `N#C/C(=C\c1ccc(C=O)cc1)C(=O)O` yielded an IC50 of 140 µM. In the case of `Cc1ccc(/C=C(\C#N)C(=O)O)cc1`, the IC50 is reported as 1350 µM. In the case of `CN(C)c1ccc(/C=C(\C#N)C(=O)O)cc1`, the IC50 is reported as 1400 µM. `COc1ccc(/C=C(\C#N)C(=O)O)cc1` was tested, and the IC50 was 2500 µM. In the case of `N#C/C(=C\c1ccccc1)C(=O)O`, the IC50 is reported as greater than 2500 µM. `N#C/C(=C\c1ccc(F)cc1)C(=O)O` was tested, and the IC50 was 2500 µM. For `N#C/C(=C\c1ccc(O)cc1)C(=O)O` [alpha-CYANO-4-HYDROXYCINNAMIC ACID], the IC50 was 308 µM.

From ChEMBL document CHEMBL1124610, “Tyrphostins I: synthesis and biological activity of protein tyrosine kinase inhibitors” (J Med Chem, 1989)
